Reference: publication PMC7728545 (Cell, 2020)
Where two headings read alike, the source gives them in different places.

Columns and labels:
AbCdnD = molecular target: T1, AbCdnD (Acinetobacter sp. ATCC 27244, UniProt C0VHD2); experiment: cyclic oligonucleotide synthesis; assay type: biochemical; details: K+, Mg2+, Mn2+, pH 9.0-9.4, 37 °C
T1 sequence (C0VHD2 1-343): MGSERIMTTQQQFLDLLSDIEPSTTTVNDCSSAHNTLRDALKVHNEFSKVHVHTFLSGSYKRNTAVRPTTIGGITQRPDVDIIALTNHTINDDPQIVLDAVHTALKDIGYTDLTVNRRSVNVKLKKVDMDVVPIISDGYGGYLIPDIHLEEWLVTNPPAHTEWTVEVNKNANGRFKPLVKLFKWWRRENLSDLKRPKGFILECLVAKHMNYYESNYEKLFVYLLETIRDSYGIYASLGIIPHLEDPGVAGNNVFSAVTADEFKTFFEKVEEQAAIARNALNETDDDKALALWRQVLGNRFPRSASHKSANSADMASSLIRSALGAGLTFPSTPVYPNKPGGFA

EcCdnD = EcCdnD (Enterobacter hormaechei, UniProt P0DSP4); assay type: biochemical; details: 10 mM MgCl2, 50 mM CAPSO pH 9.4, 37 °C
EcCap4 K74A = molecular target: T2, EcCap4 K74A (Enterobacter cloacae, UniProt P0DUD5 1-499, K74A); experiment: EMSA
T2 sequence: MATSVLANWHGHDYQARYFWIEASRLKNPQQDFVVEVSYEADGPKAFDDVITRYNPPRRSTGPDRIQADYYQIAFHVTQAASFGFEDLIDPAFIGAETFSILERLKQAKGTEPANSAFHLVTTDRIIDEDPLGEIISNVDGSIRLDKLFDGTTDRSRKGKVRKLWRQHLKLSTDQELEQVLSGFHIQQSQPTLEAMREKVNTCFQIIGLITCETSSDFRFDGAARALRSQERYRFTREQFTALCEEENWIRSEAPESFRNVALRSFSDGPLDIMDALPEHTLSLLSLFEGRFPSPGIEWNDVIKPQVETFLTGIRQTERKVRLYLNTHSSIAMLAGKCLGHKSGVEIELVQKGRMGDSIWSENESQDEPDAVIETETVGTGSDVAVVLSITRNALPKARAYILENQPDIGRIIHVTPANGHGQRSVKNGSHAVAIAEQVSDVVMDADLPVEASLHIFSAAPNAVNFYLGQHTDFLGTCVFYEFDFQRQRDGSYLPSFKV

AbCap4 K69A = AbCap4 K69A (Acinetobacter baumannii, UniProt C0VHC9 1-462, K69A); experiment: EMSA

Nc1ncnc2c1ncn2[C@@H]1O[C@H](COP(=O)(O)OP(=O)(O)OP(=O)(O)O)[C@@H](O)[C@H]1O [ATP]
cyclic oligonucleotide synthesis; AbCap4 activation, TLC, HPLC (AbCdnD): ATP is necessary and sufficient to allow AbCdnD to synthesize the activating nucleotide second messenger
TLC with 32P-label (EcCdnD; co-substrate GTP, labelled compound): EcCdnD: ATP, GTP

Nc1nc2c(ncn2[C@@H]2O[C@H](COP(=O)(O)OP(=O)(O)OP(=O)(O)O)[C@@H](O)[C@H]2O)c(=O)[nH]1 [GTP]
TLC with 32P-label (EcCdnD; co-substrate ATP): EcCdnD: ATP, GTP

B1: DNA45 (45 bp DNA) (dsDNA)
DNA 1: TACAGATCTACTAGTGATCTATGACTGATCTGTACATGATCTACA
DNA 2: TGTAGATCATGTACAGATCAGTCATAGATCACTAGTAGATCTGTA
binding result (EcCap4 K74A): binds
binding result (AbCap4 K69A): binds
